Data from US20250287950A1, “FUNGICIDAL USE” (Adama Makhteshim Ltd., priority 2021, published 2025).

What was measured:
[1] = tested on: Mycosphaerella fijiensis (black sigatoka); test: Black sigatoka open field trial in banana, one application (Example 8a); type: in vivo
Method: To test for fungicidal control of Mycosphaerella fijiensis the trial was realized in open field. […] Each of the above treatments was applied once when plants were showing a disease infection of 5%. The treatments composed of 4 replicates. The experimental design was a randomized complete block design. Data was analyzed using an ANOVA at the 95% confidence interval.
The level of infection was determined based on the weighted average of infection (PPI) using the Stover scale modified by Gaulh on 5 plants per plot.

[2] = tested on: Mycosphaerella fijiensis (black sigatoka); test: Black sigatoka open field trial in banana, 12 applications, leaves per plant (Example 8b); type: in vivo; conditions: folpet 850 g a.i./ha
Description: To test fungicidal control of Mycosphaerella fijiensis, the trial was realized in open field. […] All treatments were applied in a water solution: no mineral oil added.
Experimental unit consisted of 9 banana plants surrounded by Musa textilis, a variety tolerant to Black Sigatoka, used as border plants. The trial followed a complete randomized design, each treatment was replicated three times.
Applications were done every 6 days. All treatments had 12 applications.
The total leaves per plant was evaluated. A high number of leaves at harvest translates to more capability keep the fruit in post-harvest.
Treatment response to black Sigatoka was evaluated using the Stover scale modified by Gauhl.
The statistical analysis was done with INFOSTAT program, using a multiple comparison test (LSD) for every parameter.

O=C1c2ccccc2C(=O)N1SC(Cl)(Cl)Cl [folpet]
efficacy relative to the mancozeb reference product (in words) ([1]; dose of 750 g a.i./ha): comparable to the one provided by the reference product based on mancozeb
control of black sigatoka disease (in words) ([1]; low doses of 500 and 625 g a.i./ha): good control
number of leaves per plant in comparison to the untreated and the mancozeb standard (in words) [2]: higher number of leaves per plant
